One assay addresses T1, photosystem II (PS II) (Spinacia oleracea, UniProt P69560).
T1 construct: the chloroplasts were osmotically ruptured and the thylakoid membranes were then obtained by centrifugation; from tissue; host or cells: spinach leaves (thylakoid membrane preparation)
The assay is described as follows: Activity determination of photosystem II (PS II) in thylakoid membranes, DCPIP reduction. It is filed as biochemical. The conditions noted are these: spinach thylakoid membranes, DCPIP 120 μM, 10 min at 22° C. with illumination. The method, then:
Measurement of PS II Activity in Thylakoid Membranes
1. Preparation of the Thylakoid Membranes
Cooled fresh spinach leaves were comminuted and homogenized in 50 mM phosphate buffer, pH 6.8, 10 mM KCl, 0.34 M sucrose (sucrose buffer) (mixer, 1 g of plant material/ml). The homogenate was subsequently filtered through 4 layers of Miracloth and the chloroplasts were obtained by centrifugation: • 10 minutes (min) of centrifugation at 4400×g (4° C.). • The sediment was suspended in 25 ml of sucrose buffer and centrifuged for another 10 min at 4400×g (4° C.). • The sediment was then suspended in 40 ml of 50 mM phosphate buffer, pH 6.8, 10 mM KCl, without sucrose. • In this step, the chloroplasts were osmotically ruptured and the thylakoid membranes were then obtained by centrifugation (10 min, 4400×g, 4° C.). The membrane sediment was finally suspended in about 20 ml of 50 mM phosphate buffer, pH 6.8, 10 mM KCl. • After protein determination and activity determination, the membrane suspension was aliquoted and frozen in liquid nitrogen. The aliquots were stored at −80° C. Under these conditions, the photosystem II preparation is storage-stable for at least three months.
2. Activity Determination of the Photosystem II (PS II)
The electron transfer from PS II to an artificial electronic captor, 2,6-dichlorophenol-indophenol (DCPIP), is measured under the action of light. The concentration of the blue oxidized form of DCPIP can be determined spectraphotometrically at the wavelength l=595 nm. The enzyme-catalyzed reduction of DCPIP results in a colourless leuco form and thus to a decrease of absorption at 595 nm in the reaction batch, which is measured as a function of time.
The activity determination was carried out in microtiter plates (96 wells) in a reaction volume of 200 μl. 155 μl of dilute membrane suspension in 50 mM phosphate buffer, pH 6.8, 10 mM KCl were initially charged. Depending on the activity of the PS II preparation, the dilution was adjusted such that measurement of the decrease in absorption (λ=595 nm) was linear for at least 10 min.
Typical dilution series of the test compounds comprised 10 concentration steps in the range between 10^−9and 10^−5 M.
On each microtiter plate, a known PS II inhibitor, e.g. metribuzin, was used as standard for assessing the quality of the PS II test.
The reaction was initiated by addition of 40 μl DCPIP solution (600 μM in distilled water); the final concentration of DCPIP was 120 μM.
Absorption was measured over a period of 10 min at 22° C. and with illumination. For calculating the active compound concentration at which 50% of the enzyme activity is inhibited (IC50), the relative enzymatic activity (in %) was plotted as a function of the logarithm of the active compound concentration.

Another assay concerns Setaria viridis. Put plainly: Post-emergence herbicidal action, SETVI. It is filed as in vivo. The conditions noted are these: one-leaf stage, application rate 1280 g/ha, scored visually after about 3 weeks. The protocol: (§1) Post-Emergence Herbicidal Activity Seeds of mono- and dicotyledonous weed plants and crop plants were placed in sandy loam in wood fibre pots, covered with soil and then cultivated in a greenhouse under good growth conditions. Two to 3 weeks after sowing, the test plants were treated at the one-leaf stage, with the formulated compounds of the general formula (I) according to the invention being sprayed as an aqueous suspension or emulsion at an application rate of 600 l of water/ha (converted) with addition of 0.2% wetting agent, onto the green parts of the plants. After the test plants had been left to stand in the greenhouse for about 3 weeks under optimum growth conditions, the activity of the preparations was scored visually in percent in comparison to untreated controls. For example, 100% activity=the plants have died, 50% herbicidal activity or damage=plants reduced to 50% or plant material reduced by 50%, 0% activity=like control plants. […] Here, the herbicidal action of the compounds of the general formula (I) according to the invention was examined for the following harmful plants: SETVI=Setaria viridis The respective herbicidal action was in each case determined at the same point in time after application of the formulation in question, i.e. damage of the harmful plant in question in %. […]

For assay [1], the system named is Polygonum convolvulus (=Fallopia convolvulus). Put plainly: Post-emergence herbicidal action, POLCO. It is filed as in vivo. The conditions noted are these: one-leaf stage, application rate 1280 g/ha, scored visually after about 3 weeks. The protocol: as §1, with “POLCO=Polygonum convolvulus (=Fallopia convolvulus)” for “SETVI=Setaria viridis”
Another assay has as its system Ipomoea purpurea. The assay is described as follows: Post-emergence herbicidal action, PHBPU. It is filed as in vivo. The conditions noted are these: one-leaf stage, application rate 1280 g/ha, scored visually after about 3 weeks. The method, then: as §1, with “PHBPU=Ipomoea purpurea” for “SETVI=Setaria viridis”
A further assay relates to Viola tricolor. The assay is described as follows: Post-emergence herbicidal action, VIOTR. The format is in vivo. The conditions noted are these: one-leaf stage, application rate 1280 g/ha, scored visually after about 3 weeks. The method, then: as §1, with “VIOTR=Viola tricolor” for “SETVI=Setaria viridis”

At photosystem II (PS II), `CC1=C(C)C(O)N(C2=NN(Cc3ccccc3)C(C)(C)C2)C1=O` (stereo not drawn) [I.2-217] came in with a pI50 of 5.4.

In the case of `CC1=C(C)C(O)N(C2=NN(c3ccccc3)C(C)C2)C1=O` (stereo not drawn) [I.2-321], the IC50 at photosystem II (PS II) (read-out: pI50 (converted)) is 7.94 µM.

For the molecule `CC1=C(C)C(O)N(C2=NN(c3ccccn3)C(C)C2)C1=O` (stereo not drawn) [I.2-432], the “Post-emergence herbicidal action SETVI, damage of the harmful plant” value in the assay on Setaria viridis was determined as 80%. Moreover, in assay [1], the “Post-emergence herbicidal action POLCO, damage of the harmful plant” value was found to be 0%. In addition, the “Post-emergence herbicidal action PHBPU, damage of the harmful plant” value with Ipomoea purpurea came out at 0%. Also, the “Post-emergence herbicidal action VIOTR, damage of the harmful plant” value with Viola tricolor is on record as 80%.

Consider `CC1=C(Cl)C(=O)N(C2=NN(c3ccccc3)C(C)C2)C1O` (stereo not drawn) [I.3-321], for which the pI50 at photosystem II (PS II) is reported as 5.4.

The molecule `CC1=C(Cl)C(=O)N(C2=NN(C)C(c3ccc(Cl)cc3)C2)C1O` (stereo not drawn) [I.3-1351] had a pI50 on photosystem II (PS II) of 5.5.

As to `CC1=C(Br)C(=O)N(C2=NN(c3ccccc3)CC2)C1O` (stereo not drawn) [I.8-621], in the assay with Setaria viridis, the “Post-emergence herbicidal action SETVI, damage of the harmful plant” value is reported as 60%. Further, in assay [1], the “Post-emergence herbicidal action POLCO, damage of the harmful plant” value turned out to be 90%. Further, the “Post-emergence herbicidal action PHBPU, damage of the harmful plant” value with Ipomoea purpurea amounted to 90%. Besides, in the assay on Viola tricolor, the “Post-emergence herbicidal action VIOTR, damage of the harmful plant” value is reported as 80%. At photosystem II (PS II), the pI50 is recorded as 5.3.

As to `CC1=C(Br)C(=O)N(C2=NN(C)C(c3ccccc3)C2)C1O` (stereo not drawn) [I.8-1126], at photosystem II (PS II), the pI50 is on record as 5.1.

Take `CC1=C(Br)C(=O)N(C2=NN(C)C(c3ccc(Cl)cc3)C2)C1O` (stereo not drawn) [I.8-1351]: on photosystem II (PS II), the pI50 was 5.7.

Values taken from patent publication US20190166840A1, “SUBSTITUTED PYRAZOLINYL DERIVATIVES, PROCESSES FOR THEIR PREPARATION AND THEIR USE AS HERBICIDES AND/OR PLANT GROWTH REGULATORS” (BAYER CROPSCIENCE AKTIENGESELLSCHAFT, priority 2016, published 2019).
